Reference: ChEMBL document CHEMBL1147328, “13C-NMR assignments and cytotoxicity assessment of zoanthoxanthin alkaloids from zoanthid corals” (J Nat Prod, 1993)
Converted amounts (≈) assume the structure as drawn.

Legend:
Type in all cases: functional, cell-based
[1] = system: HT-29; experiment: Cytotoxicity against human HT-29 cells
[2] = system: HCT-8; experiment: Cytotoxicity against human HCT8 cells
[3] = system: A549; experiment: Cytotoxicity against human A549 cells
[4] = system: P388; experiment: Cytotoxicity against mouse P388 cells

`CNc1nc2c(C)ccc3nc(N(C)C)nc-3c2n1C` showed an IC50 [1] of 0.824 µg/mL (≈ 3.05 µM), an IC50 [2] of 1.61 µg/mL (≈ 5.96 µM) and an IC50 [3] of 2.38 µg/mL (≈ 8.8 µM). The IC50 [4] was 1.77 µg/mL (≈ 6.55 µM).
